Experimental data: the supplement of paper PMC4862054

What was measured:
Settings in all cases: incubation time: 72 h
[1] = system: SK-BR-3; test: drug sensitivity score (DSS), CellTiter-Glo (DSS (AUC-based score)); higher = stronger drug effect (viability inhibition or cytotoxicity); extreme values may be limits of the assay
Outline: (§1)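 In 384-well plates, compound was laid out at 5 concentrations in 10-fold steps over a 10,000-fold range specific to each compound, and breast cancer cell lines were seeded on top in 20 µl suspension for a 72 h incubation. CellTox Green fluorescence and then CellTiter-Glo luminescence were read, and each plate was normalised to 0.1 % DMSO and a positive kill control. The drug sensitivity score was calculated from the area under the fitted dose-response curve.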

[2] = system: MFM-223; test: as above
Outline: as §1

[3] = system: HCC1143; test: as above
Outline: as §1

[4] = system: CAL-148; test: as above
Outline: as §1

[5] = system: HCC1599; test: as above
Outline: as §1

[6] = system: CAL-51; test: as above
Outline: as §1

[7] = system: Hs578T; test: as above
Outline: as §1

[8] = system: MDA-MB-453; test: as above
Outline: as §1

[9] = system: HCC1937; test: as above
Outline: as §1

[10] = system: BT-474; test: as above
Outline: as §1

[11] = system: MDA-MB-468; test: as above
Outline: as §1

[12] = system: CAL-85-1; test: as above
Outline: as §1

[13] = system: BT-549; test: as above
Outline: as §1

[14] = system: MCF-10A; test: as above
Outline: as §1

[15] = system: MDA-MB-436; test: as above
Outline: as §1

[16] = system: SK-BR-3; test: normalised viability (% of control), CellTiter-Blue; higher = more viable cells (about 100 = DMSO control)
Outline: (§2)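 Each entry is normalised viability at a single listed concentration within a series. It comes from breast cancer cell lines incubated 72 h with compound in 384-well plates, then measured with CellTiter-Blue fluorescence at 560/590 nm. Every plate was normalised between vehicle (100) and a positive kill control (0).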

[17] = system: MFM-223; test: as above
Outline: as §2

[18] = system: HCC1143; test: as above
Outline: as §2

[19] = system: CAL-51; test: as above
Outline: as §2

[20] = system: HCC1937; test: as above
Outline: as §2

[21] = system: HDQ-P1; test: as above
Outline: as §2

[22] = system: BT-474; test: as above
Outline: as §2

[23] = system: MDA-MB-468; test: as above
Outline: as §2

[24] = system: MDA-MB-231; test: as above
Outline: as §2

[25] = system: CAL-120; test: as above
Outline: as §2

CC1(C)NC(=O)N(c2ccc([N+](=O)[O-])c(C(F)(F)F)c2)C1=O [Nilutamide]
Settings | drug sensitivity score
[1] | 0
[2] | 0
[3] | 0
[4] | 0
[5] | 0
[6] | 2.72
[7] | 0
[8] | 0
[9] | 0
[10] | 0
[11] | 0
[12] | 0
[13] | 0
[14] | 0
[15] | 0

normalised viability [%]
Settings | [16] | [17] | [18] | [19] | [20] | [21] | [22] | [23] | [24] | [25]
3 nM | – | – | – | 101 | – | 124 | – | – | – | –
10 nM | 100 | 108 | 89.3 | – | 105 | – | 122 | 115 | 102 | 95.6
30 nM | – | – | – | 96.1 | – | 120 | – | – | – | –
100 nM | – | – | – | 94.6 | – | 112 | – | – | – | –
1000 nM | 104 | 98.4 | 113 | – | 87.3 | – | 128 | 103 | 92.2 | 90.1
10000 nM | 132 | 85.8 | 94 | – | 94.7 | – | 110 | 103 | 109 | 116

Cn1c(Nc2ccc(C(F)(F)F)cc2)nc2cc(Oc3ccnc(-c4ncc(C(F)(F)F)[nH]4)c3)ccc21 [RAF265]
Settings | drug sensitivity score
[1] | 0
[2] | 2.07
[3] | 0
[4] | 0
[5] | 0
[6] | 0
[7] | 2.49
[8] | 0
[9] | 1.88
[10] | 0.538
[11] | 4.79
[12] | 1.63
[13] | 1.66
[14] | 0
[15] | 2.94

normalised viability [%]
Settings | [16] | [17] | [18] | [19] | [20] | [21] | [22] | [23] | [24] | [25]
0.3 nM | – | – | – | 91.4 | – | 95.3 | – | – | – | –
1 nM | 96.2 | 94.9 | 90.1 | – | 103 | – | 118 | 110 | 110 | 88.5
3 nM | – | – | – | 94.2 | – | 94.6 | – | – | – | –
10 nM | – | – | – | 99.1 | – | 79.7 | – | – | – | –
100 nM | 96.3 | 74.7 | 78 | – | 78.7 | – | 107 | 94.2 | 86.1 | 64.5
1000 nM | 106 | 43.8 | 72.5 | – | 62 | – | 96.4 | 80.1 | 53.8 | 51.3

CNCc1ccc(-c2[nH]c3cc(F)cc4c3c2CCNC4=O)cc1 [Rucaparib]
Settings | drug sensitivity score
[1] | 0
[2] | 0
[3] | 0
[4] | 1.62
[5] | 0
[6] | 0
[7] | 0
[8] | 0
[9] | 0
[10] | 1.39
[11] | 2.43
[12] | 0
[13] | 0.12
[14] | 0
[15] | 1.14

normalised viability [%]
Settings | [16] | [17] | [18] | [19] | [20] | [21] | [22] | [23] | [24] | [25]
3 nM | – | – | – | 119 | – | 87 | – | – | – | –
10 nM | 97.5 | 95.4 | 84.3 | – | 55.9 | – | 108 | 103 | 99.2 | 77.4
30 nM | – | – | – | 114 | – | 88 | – | – | – | –
100 nM | – | – | – | 110 | – | 88.2 | – | – | – | –
1000 nM | 98.2 | 99.2 | 94.2 | – | 72.2 | – | 111 | 105 | 84.3 | 81
10000 nM | 78.5 | 61.5 | 89.9 | – | 52.7 | – | 102 | 77.5 | 75.4 | 76.8

N[C@@H](CSC(c1ccccc1)(c1ccccc1)c1ccccc1)C(=O)O [S-trityl-L-cysteine]
Settings | drug sensitivity score
[1] | 0
[2] | 0
[3] | 0
[4] | 0
[5] | 0
[6] | 0
[7] | 0
[8] | 0
[9] | 0
[10] | 0
[11] | 0
[12] | 0
[13] | 0
[14] | 0
[15] | 0

normalised viability [%]
Settings | [16] | [17] | [18] | [19] | [20] | [21] | [22] | [23] | [24] | [25]
12 nM | – | – | – | 87 | – | 94.4 | – | – | – | –
40 nM | 112 | 102 | 134 | – | 98.7 | – | 111 | 102 | 86.8 | 110
120 nM | – | – | – | 90.5 | – | 92.5 | – | – | – | –
400 nM | – | – | – | 87 | – | 110 | – | – | – | –
4000 nM | 18.3 | 100 | 113 | – | 24.8 | – | 94 | 34.5 | 27.9 | 42.4
40000 nM | 20.1 | 78.2 | 58.6 | – | 22.6 | – | 25.9 | 34.6 | 25.9 | 35.2
